Assays:
[1] = biological target: T1, BACE1 (Homo sapiens, UniProt P56817); test: In Vitro BACE Cell-based Assay (HEK cell assay): Aβ40 in conditioned medium of cells stably expressing Amyloid Precursor Protein, sandwich ELISA
Procedure, shortened: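 First, APP-stable cells grow 24 h at 37° C., 5% CO2. Next, test compounds are added for 24 h (10 doses, 0.1% DMSO). Finally, medium Aβ40 is determined by pAb40/6E10 sandwich ELISA with Europium TRF, and IC50 is calculated.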

[2] = biological target: T1, BACE1; test: In Vitro Enzymatic BACE FRET (Fluorescence Resonance Energy Transfer) Assay; type: biochemical
Procedure, shortened: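 Buffer: 0.05 M acetate, pH 4.2, 10% DMSO final, 100 uM genapol. Start: FRET substrate 50 nM. Incubation 1 h. Stop: Tris to neutral pH. Read: fluorescence.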

[3] = Table IV, class symbols, read-out: HEK cell assay
[4] = Table IV, class symbols, read-out: BACE1 FRET assay
[5] = HEK cells, read-out: HEK cell assay
[6] = Table II, Aβ40, 24 h incubation, read-out: HEK cell assay
[7] = Table II, read-out: BACE1 FRET assay
[8] = Table III, IC50's in uM ranges, read-out: HEK cell assay
[9] = Table III, IC50's in uM ranges, read-out: BACE1 FRET assay

T1 sequence (P56817 46-501, species assumed): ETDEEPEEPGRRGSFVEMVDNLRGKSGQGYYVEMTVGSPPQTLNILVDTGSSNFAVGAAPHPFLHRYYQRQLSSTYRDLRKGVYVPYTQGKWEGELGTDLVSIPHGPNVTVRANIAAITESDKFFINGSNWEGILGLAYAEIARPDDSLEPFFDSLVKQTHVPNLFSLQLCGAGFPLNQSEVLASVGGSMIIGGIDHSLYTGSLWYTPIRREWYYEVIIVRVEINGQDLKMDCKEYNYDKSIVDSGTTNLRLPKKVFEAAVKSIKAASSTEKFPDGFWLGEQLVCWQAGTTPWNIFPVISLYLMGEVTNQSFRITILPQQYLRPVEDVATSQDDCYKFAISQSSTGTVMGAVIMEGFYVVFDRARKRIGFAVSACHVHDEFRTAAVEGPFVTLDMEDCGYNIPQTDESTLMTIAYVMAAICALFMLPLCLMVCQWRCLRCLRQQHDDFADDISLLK

Structure (SMILES)	IC50 [1, 3]	IC50 [2, 4]	IC50 ([2]; read-out: BACE1 FRET assay)	other results
CC(C)(C)C#Cc1ccc2c(c1)[C@]1(COC(N)=N1)c1cc(C#CC(C)(C)C)ncc1O2 [compound 847]	1 to 5 µM	0.1 to 1 µM	–	–
Cn1cc(-c2ccc3c(c2)[C@]2(COC(N)=N2)c2cc(-c4cccnc4)ccc2O3)cn1 [compound 710]	–	–	< 0.1 µM	IC50 ([1]; read-out: HEK cell assay): < 0.1 µM
CC(C)(C)COc1ccc2c(c1)[C@]1(COC(N)=N1)c1cc(C(=O)NC3CCCC3)ccc1O2 [compound 874]	1 to 5 µM	0.1 to 1 µM	–	–
COC(C)(C)C#Cc1cnc2c(c1)[C@@]1(COC(N)=N1)c1cc(-c3ccncc3)ccc1O2 [compound 692]	–	–	> 5 µM	IC50 ([1]; read-out: HEK cell assay): > 5 µM
CC(C)(C)COc1cnc2c(c1)[C@]1(COC(N)=N1)c1cc(-c3ccccc3)ccc1O2 [compound 469]	–	–	< 0.1 µM	IC50 [1, 5]: 0.1 to 1 µM
NC1=N[C@@]2(CO1)c1cc(-c3cccnc3)ccc1Oc1cnc(N3CCNCC3)cc12 [compound 439]	–	–	< 0.1 µM	IC50 [1, 5]: < 0.1 µM
NC1=N[C@@]2(CO1)c1cc(-c3cccnc3)ccc1Oc1ccc(-c3ccsc3)cc12 [compound 672]	–	–	< 0.1 µM	IC50 ([1]; read-out: HEK cell assay): < 0.1 µM
NC1=N[C@@]2(CO1)c1cc(-c3cccnc3F)ccc1Oc1cnc(Cl)cc12 [compound 551]	0.1 to 1 µM	0.1 to 1 µM	–	–
NC1=NC2(CO1)c1cnccc1Oc1ccc(-c3cccnc3)cc12 (stereo not drawn) [compound 648]	1 to 5 µM	1 to 5 µM	–	–
CC(C)(C)COc1ccc2c(c1)[C@]1(COC(N)=N1)c1cc(-c3cc(Cl)ccc3F)cnc1O2 [Example 91, (5R)-3-(5-chloro-2-fluorophenyl)-7-(2,2-dimethylpropoxy)spiro[chromeno[2,3-b]pyridine-5,4′-[1,3]oxazol]-2′-amine]	–	–	–	IC50 [1, 6]: 0.1 to 1 µM; IC50 [2, 7]: < 0.1 µM
CC(C)(C)COc1ccc2c(c1)[C@]1(COC(N)=N1)c1cc(C3CC4CCC3C4)ccc1O2 (stereo partly drawn) [compound 700]	–	–	0.1 to 1 µM	IC50 ([1]; read-out: HEK cell assay): > 5 µM
NC1=N[C@@]2(CO1)c1cc(-c3cccnc3)ccc1Oc1c(F)cc(OCC3CCOCC3)cc12 [compound 418]	–	–	–	IC50 ([1]; HEK cell-based assay, Aβ40 in conditioned medium, IC50 class symbols, read-out: HEK cell assay): < 0.1 µM; IC50 ([2]; in vitro BACE FRET enzyme assay, IC50 class symbols, read-out: BACE1 FRET assay): < 0.1 µM
COC(=O)/C=C/c1ccc2c(c1)[C@]1(COC(N)=N1)c1cc(-c3cncnc3)ccc1O2 [compound 993]	–	–	< 0.1 µM	IC50 ([1]; read-out: HEK cell assay): 0.1 to 1 µM
COCC(=O)Nc1ccc2c(c1)[C@@]1(COC(N)=N1)c1cc(-c3ccccc3)ccc1O2 [compound 533]	< 0.1 µM	< 0.1 µM	–	–
CC(C)(C)C#Cc1cnc2c(c1)[C@]1(COC(N)=N1)c1cc(-c3ccc(F)nc3)ccc1O2 [compound 766]	–	–	< 0.1 µM	IC50 ([1]; read-out: HEK cell assay): < 0.1 µM
CC(C)(O)C#Cc1ccc2c(c1)C1(COC(N)=N1)c1cc(C#CC(C)(C)O)ccc1O2 [compound 118]	–	–	–	IC50 [1, 8]: 1 to 5 µM; IC50 [2, 9]: 1 to 5 µM
CC(C)(C)COc1ccc2c(c1)[C@]1(COC(N)=N1)c1cc(C3CCCCC3)ccc1O2 [compound 802]	0.1 to 1 µM	< 0.1 µM	–	–
COc1ncccc1-c1ccc2c(c1)[C@@]1(COC(N)=N1)c1cc(C#CC(C)(C)OC)cnc1O2 [compound 806]	< 0.1 µM	< 0.1 µM	–	–
CC(C)(C)COc1ccc2c(c1)[C@]1(COC(N)=N1)c1cc(-c3cc(Cl)ccc3F)ccc1O2 [Example 75, (4S)-2′-(5-chloro-2-fluorophenyl)-7′-(2,2-dimethylpropoxy)spiro[1,3-oxazole-4,9′-xanthen]-2-amine]	–	–	–	IC50 [1, 6]: 0.1 to 1 µM; IC50 [2, 7]: < 0.1 µM
CC(C)(O)COc1ccc2c(c1)[C@]1(COC(N)=N1)c1cc(-c3cncc(F)c3)ccc1O2 [compound 224]	–	–	–	IC50 [1, 8]: < 0.1 µM; IC50 [2, 9]: < 0.1 µM
CC1(C)CN(c2cc(F)c3c(c2)[C@@]2(COC(N)=N2)c2cc(-c4cncnc4)ccc2O3)CCO1 [compound 506]	–	–	0.1 to 1 µM	IC50 [1, 5]: 1 to 5 µM
CC(C)(C)C#Cc1cc2c(cn1)Oc1ccc(-c3cncnc3)cc1[C@@]21COC(N)=N1 [compound 512, (5S)-3-(3,3-dimethyl-1-butyn-1-yl)-7-(5-pyrimidinyl)spiro[chromeno[2,3-c]pyridine-5,4′-[1,3]oxazol]-2′-amine]	–	–	< 0.1 µM	IC50 [1, 5]: < 0.1 µM
CC1(C)C=C(c2cc3c(cc2F)Oc2ccc(-c4cncnc4)cc2[C@@]32COC(N)=N2)CCO1 [compound 502]	–	–	< 0.1 µM	IC50 [1, 5]: < 0.1 µM
NC1=N[C@@]2(CO1)c1cc(-c3cccnc3F)ccc1Oc1cnc(-c3ccccc3)cc12 [compound 494]	–	–	–	IC50 ([1]; HEK cell assay (uM), HEK cells): < 0.1 µM; IC50 ([2]; BACE1 FRET assay (uM)): < 0.1 µM
CC1(COc2ccc3c(c2)[C@@]2(COC(N)=N2)c2cc(-c4cncnc4)cc(F)c2O3)COC1 [compound 795]	< 0.1 µM	< 0.1 µM	–	–
CC1(C)CN(c2cnc3c(c2)[C@]2(COC(N)=N2)c2cc(-c4cc(F)ccc4F)ccc2O3)CCO1 [compound 468]	–	–	< 0.1 µM	IC50 [1, 5]: < 0.1 µM
NC1=N[C@@]2(CO1)c1cc(-c3ccc4nccn4c3)ccc1Oc1ncccc12 [compound 572]	1 to 5 µM	> 5 µM	–	–
